Read-outs that look alike come from different tables or passages of the source.
Legend:
[1] = test system: OVCAR ovarian cancer cells; assay: NCI anticancer screen, cytotoxicity, OVCAR ovarian cancer cells; assay type: cell-based; conditions: Homo sapiens, read-out: cytotoxicity GI50, Ovarian OVCAR
Text: (§1) The effects of the analogs on cancer cell growth was investigated in the National Cancer Institute (NCI) Developmental Therapeutics Program's in vitro panel of approximately 55 cell lines (Grever et al., Seminars in Oncology 19:622 (1992), Alley et al., Cancer Research 48:589 (1988) and Montes et al., J. National Cancer Institute 83:757 (1991)).

[2] = test system: human cancer cell lines (approximately 55); assay: NCI anticancer screen, in vitro panel of approximately 55 cell lines; assay type: cell-based; conditions: for GI50: read-out: cytotoxicity MGM (mean graph midpoint for all human cancer cell lines tested)
Text: as §1

[3] = test system: SN12--C renal cancer cells; assay: NCI anticancer screen, cytotoxicity, SN12-C renal cancer cells; assay type: cell-based; conditions: Homo sapiens, SN12C, read-out: cytotoxicity GI50, Renal SN12-C
Text: as §1

[4] = test system: MDA-MB-435 breast cancer cells; assay: NCI anticancer screen, cytotoxicity, MDA-MB-435 breast cancer cells; assay type: cell-based; conditions: Homo sapiens
Text: as §1

[5] = test system: HOP-62 non-small-cell lung cancer cells; assay: NCI anticancer screen, cytotoxicity, HOP-62 non-small-cell lung cancer cells; assay type: cell-based; conditions: Homo sapiens
Text: as §1

tubulin = assay: Inhibition of polymerization of purified tubulin; assay type: biochemical, bovine; conditions: for IC50: extent of polymerization after 20 min incubation, 26° C., 350 nm, read-out: Inhibn of Tubulin Polymn IC50
Description: Electrophoretically homogeneous tubulin was purified from bovine brain as described previously (Hamel et al., Biochemistry 23:4173-4184 (1984)). Determination of IC50 values for the polymerization of purified tubulin was performed as described in D'Amato et al. Proc. Natl. Acad. Sci. U.S.A. 91:3964-3968 (1994). Tubulin was preincubated at 26° C. with varying compound concentrations, reaction mixtures were chilled on ice, GTP (required for the polymerization reaction) was added, and polymerization was followed at 26° C. by turbidimetry at 350 nm in Gilford recording spectrophotometers equipped with electronic temperature controllers. Four instruments were used, and two control reaction mixtures were present in each experiment. The extent of polymerization after a 20 min incubation was determined (the values for the two controls were usually within 5% of each other). IC50 values were determined graphically. […] Inhibition of colchicine binding to tubulin was performed as described previously (D. Amato et al., Proc. Natl. Acad. Sci. U.S.A. 91:3964-3968 (1994)). […] Incubation was for 30 min at 37° C.

[6] = test system: SF-539 central nervous system (CNS) cancer cells; assay: NCI anticancer screen, cytotoxicity, SF-539 central nervous system (CNS) cancer cells; assay type: cell-based; conditions: Homo sapiens
Text: as §1

[7] = test system: HCT-116 colon cancer cells; assay: NCI anticancer screen, cytotoxicity, HCT-116 colon cancer cells; assay type: cell-based; conditions: Homo sapiens
Text: as §1

UACC-62 melanoma cells = assay: NCI anticancer screen, cytotoxicity, UACC-62 melanoma cells; assay type: cell-based; conditions: Homo sapiens
Text: as §1

[8] = test system: DU-145 prostate cancer cells; assay: NCI anticancer screen, cytotoxicity, DU-145 prostate cancer cells; assay type: cell-based; conditions: Homo sapiens
Text: as §1

solid tumors = conditions: in mice; Fotsis et al., Nature 368:237 (1994); cited from earlier work
[9] = MDA-MB-435, read-out: cytotoxicity GI50, Breast MDA-MB-435
[10] = HOP-62, read-out: cytotoxicity GI50, Lung HOP-62
[11] = SF-539, read-out: cytotoxicity GI50, CNS SF-539
[12] = HCT-116, read-out: cytotoxicity GI50, Colon HCT-116
[13] = UACC-62, read-out: cytotoxicity GI50, Melanoma UACC-62
[14] = DU-145, read-out: cytotoxicity GI50, Prostate DU-145

SMILES	IC50 (tubulin) [µM]	GI50 [1] [µM]	GI50 ([2]; Homo sapiens) [µM]	GI50 [3] [µM]	GI50 [4, 9] [µM]	GI50 [5, 10] [µM]	GI50 [6, 11] [µM]	GI50 [7, 12] [µM]	GI50 (UACC-62 melanoma cells; [13]) [µM]	GI50 [8, 14] [µM]	also measured
COc1cc2c(cc1O)CC[C@@H]1[C@@H]2CC[C@]2(C)[C@@H](O)CC[C@@H]12 [Compound 1, 2-methoxy estradiol, reference compound]	2.9 ± 0.6	–	–	–	–	–	–	–	–	–	GI50 ([1]; OVCAR, concentration corresponding to 50% growth inhibition): 0.21 µM; GI50 ([2]; approximately 55 human cancer cell lines, GI50): 1.3 µM; GI50 ([3]; SN12-C, concentration corresponding to 50% growth inhibition): 0.95 µM; GI50 ([4]; MDA-MB-435, concentration corresponding to 50% growth inhibition, read-out: cytotoxicity GI50, Breast MDA-MB-435): 0.08 µM; GI50 ([5]; HOP-62, concentration corresponding to 50% growth inhibition, read-out: cytotoxicity GI50, Lung HOP-62): 0.7 µM; GI50 ([6]; SF-539, concentration corresponding to 50% growth inhibition, read-out: cytotoxicity GI50, CNS SF-539): 0.32 µM; GI50 ([7]; HCT-116, concentration corresponding to 50% growth inhibition, read-out: cytotoxicity GI50, Colon HCT-116): 0.47 µM; GI50 (UACC-62 melanoma cells; UACC-62, concentration corresponding to 50% growth inhibition, read-out: cytotoxicity GI50, Melanoma UACC-62): 0.36 µM; GI50 ([8]; DU-145, concentration corresponding to 50% growth inhibition, read-out: cytotoxicity GI50, Prostate DU-145): 1.8 µM; apparent signs of toxicity at tumor growth inhibiting doses (solid tumors): no apparent signs of toxicity; inhibition of growth of solid tumors (solid tumors): inhibits their growth; inhibition of neovascularization of solid tumors (solid tumors): potent inhibitor of neovascularization of solid tumors
C[C@]12CC[C@@H]3c4cc(OCC(F)(F)F)c(O)cc4CC[C@H]3[C@@H]1CC[C@@H]2O [Compound 9, 2-(2',2',2'-Trifluoroethoxy)estra-1,3,5(10)-Trien-3,17β-Diol]	1.7	0.46	2.63	4.46	0.28	11.6	1.38	3.22	2.32	7.05	–
CCOc1cc2c(cc1O)CC[C@@H]1[C@@H]2CC[C@]2(C)[C@@H](O)CC[C@@H]12 [Compound 10, 2-Ethoxyestra-1,3,5(10)-trien03,17β-diol]	0.91 ± 0.5	0.016	0.076	0.039	< 0.01	0.018	0.014	0.026	0.016	0.065	activity against all the cell lines listed in Table 1 relative to 2-methoxy estradiol (1) ([2]; all the cell lines listed in Table 1, compared with 2-methoxy estradiol (1)): more active; activity on tubulin polymerization relative to 2-methoxy estradiol (1) (tubulin; compared with 2-methoxy estradiol (1)): over three times more active

Reference: patent US6054598A, “Synthesis of 2-alkoxyestradiols” (Pharm-Eco Laboratories, Inc., priority 1998, dated 2000)
